Source: patent US20250215014A1, “KINASE INHIBITORS, PREPARATION METHODS AND USES THEREOF” (InventisBio Co., Ltd., priority 2022, published 2025)

Legend:
[1] = system: PBMC; test: Human PBMC IL-2 Assay; type: cell-based; conditions: anti-CD3/CD28 antibody, IL-2 level
Method: PBMC (frozen) obtained from health donor were thawed in RPMI-1640 medium with 10% o FBS, incubated for 4 h at 37° C. In a 96-well plate, 200,000 PBMC cells in 160 uL were added to each assay well. Ten microliter compound solution (10 uM to 0.6 nM, 8 points with 4-fold dilution) were added to cells in each well and incubated for 60 minutes at 37° C. Then 30 uL anti-CD3/CD28 antibody (Catalog #10991, Stemcell) were added to cells and incubated overnight at 37° C. After the incubation, 16 uL supernatants were transferred into a new 384-well white assay plate for cytokine analysis. IL-2 level was quantified using Human IL-2 kit (Catalog #62HIL02PEG, Cisbio) as described in the manufacturer manual.
Activation at […] activity (EC50) was calculated with the equation: […]
(§1) X is log of compound concentration, Y is the IL-2 concentration, increasing as X increases.

[2] = molecular target: DGKa (Homo sapiens (Human), UniProt P23743); test: DGK ADP-Glo Kinase Assay (DGKa); type: biochemical; conditions: 10 nM DGKa, 15 uM ATP
Method: (§2) Luminescence was recorded using an Tecan SPARK microplate reader.

[3] = molecular target: DGKz (Homo sapiens (Human), UniProt Q13574); test: DGK ADP-Glo Kinase Assay (DGKz); type: biochemical; conditions: 5 nM DGKz, 15 uM ATP
Method: as §2

[4] = system: Jurkat cells; test: Jurkat IL-2 Assay; type: cell-based; conditions: Homo sapiens, anti-CD3/CD28 antibody, IL-2 level
Method: Jurkat cells (ATCC) were cultured in RPMI-1640 medium supplemented with 10% FBS. In a 96-well plate, 250,000 cells in 130 uL were added to each assay well. Ten microliter compound solution (5 uM to 2.3 nM, 8 points with 3-fold dilution) were added to cells in each well and incubated for 60 minutes at 37° C. Then 10 uL anti-CD3/CD28 antibody (Catalog #10991, Stemcell) were added and incubated overnight at 37° C. After the incubation, 16 uL supernatants were transferred into a new 384-well white assay plate for cytokine analysis. IL-2 was quantified using Human IL-2 kit (Catalog #62HIL02PEG, Cisbio) as described in the manufacturer manual.
as §1

Chain of DGKz (Q13574 whole entry): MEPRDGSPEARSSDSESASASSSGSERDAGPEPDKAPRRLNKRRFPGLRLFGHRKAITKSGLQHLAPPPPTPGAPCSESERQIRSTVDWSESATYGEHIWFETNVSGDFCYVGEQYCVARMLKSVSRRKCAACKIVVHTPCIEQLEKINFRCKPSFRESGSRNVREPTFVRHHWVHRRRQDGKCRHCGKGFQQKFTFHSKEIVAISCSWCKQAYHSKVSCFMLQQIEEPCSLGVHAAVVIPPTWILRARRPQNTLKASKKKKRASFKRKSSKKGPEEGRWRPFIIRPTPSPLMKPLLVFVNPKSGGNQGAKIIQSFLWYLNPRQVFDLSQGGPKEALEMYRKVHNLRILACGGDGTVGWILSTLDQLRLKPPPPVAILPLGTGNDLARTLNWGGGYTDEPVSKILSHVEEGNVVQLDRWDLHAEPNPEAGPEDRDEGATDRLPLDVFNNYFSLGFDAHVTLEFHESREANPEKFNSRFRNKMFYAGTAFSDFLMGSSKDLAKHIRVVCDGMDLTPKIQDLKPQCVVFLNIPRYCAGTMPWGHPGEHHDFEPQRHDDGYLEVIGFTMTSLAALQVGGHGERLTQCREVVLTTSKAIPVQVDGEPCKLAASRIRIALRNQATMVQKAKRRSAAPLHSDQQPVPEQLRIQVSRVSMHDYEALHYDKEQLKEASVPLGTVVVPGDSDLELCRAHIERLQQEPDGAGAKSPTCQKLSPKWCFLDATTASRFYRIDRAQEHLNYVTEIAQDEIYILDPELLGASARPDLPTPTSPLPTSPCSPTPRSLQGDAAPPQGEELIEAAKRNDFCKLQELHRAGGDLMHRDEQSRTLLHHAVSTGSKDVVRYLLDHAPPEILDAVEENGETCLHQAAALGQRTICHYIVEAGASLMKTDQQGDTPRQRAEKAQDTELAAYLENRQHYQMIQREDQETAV
Chain of DGKa (P23743 whole entry): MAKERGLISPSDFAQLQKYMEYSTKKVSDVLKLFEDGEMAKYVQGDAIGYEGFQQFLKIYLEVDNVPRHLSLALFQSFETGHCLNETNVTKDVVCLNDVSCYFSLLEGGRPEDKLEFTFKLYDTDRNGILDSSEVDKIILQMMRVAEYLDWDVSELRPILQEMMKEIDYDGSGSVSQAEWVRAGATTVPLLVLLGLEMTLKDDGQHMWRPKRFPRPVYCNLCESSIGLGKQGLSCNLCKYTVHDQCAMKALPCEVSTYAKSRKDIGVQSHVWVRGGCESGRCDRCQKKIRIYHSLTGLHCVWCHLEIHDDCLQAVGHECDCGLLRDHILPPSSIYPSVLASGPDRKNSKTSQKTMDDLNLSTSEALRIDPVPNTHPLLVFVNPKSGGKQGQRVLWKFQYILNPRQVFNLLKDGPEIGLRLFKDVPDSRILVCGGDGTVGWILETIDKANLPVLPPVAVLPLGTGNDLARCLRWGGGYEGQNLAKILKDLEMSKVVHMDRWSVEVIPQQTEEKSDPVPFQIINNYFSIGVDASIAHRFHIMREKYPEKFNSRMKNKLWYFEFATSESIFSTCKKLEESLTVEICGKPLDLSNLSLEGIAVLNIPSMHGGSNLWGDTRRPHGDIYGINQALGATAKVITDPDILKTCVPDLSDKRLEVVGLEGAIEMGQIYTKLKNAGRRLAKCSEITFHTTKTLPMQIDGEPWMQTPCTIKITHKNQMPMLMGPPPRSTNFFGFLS

Structure (SMILES) | EC50 [1] [µM] | IC50 [2] [µM] | IC50 [3] [µM] | EC50 [4] [µM]
CC[C@@H]1C[C@@H](Oc2ccc(OC(F)(F)F)cc2)CCN1c1nc(=O)n(C)c2ccc(C#N)nc12 (stereo in doubt) [Compound 19] | 0.5 to 1 | > 1 | < 0.1 | 
Cn1c(=O)nc(N2CCC(Oc3ccc(OC(F)(F)F)cc3)CC2)c2nc(C#N)ccc21 [Compound 5] | 0.5 to 1 | 0.1 to 1 | 0.1 to 1 | 
Cn1c(=O)c(C(N)=O)c(N2CCC3(CCN(c4ccc(OC(F)(F)F)cc4)C3)CC2)c2nc(C#N)ccc21 [Compound 6] | > 1 | 0.1 to 1 | 0.1 to 1 | 
Cc1ccc2oc(C3(C)CCN(c4c(C#N)c(=O)n(C)c5ccc(C#N)nc45)CC3)nc2c1 [Compound 7] | < 0.5 |  |  | 
CC[C@H]1C[C@@H](Oc2ccc(OC(F)(F)F)cc2)CCN1c1nc(=O)n(C)c2ccc(C#N)nc12 [Compound 17] | < 0.5 | < 0.1 | 0.1 to 1 | 
Cn1c(=O)nc(N2CCC(Oc3ccc(OC(F)(F)F)cc3)CC2)c2c1ccc1nncn12 [Compound 21] |  |  |  | > 1
CC[C@H]1CN([C@@H]2CCCCc3cc(C(F)(F)F)ccc32)[C@H](CC)CN1c1nc(=O)n(C)c2ccc(C#N)nc12 [Compound 45] |  | 0.1 to 1 | < 0.1 | 0.5 to 1
Cn1c(=O)nc(N2CCC3(CC2)CC(c2ccccc2C(F)(F)F)=NO3)c2nc(C#N)ccc21 [Compound 48] | > 1 |  |  | 
C[C@H]1CC2(CCN1c1nc(=O)n(C)c3ccc(C#N)nc13)CC(c1ccc(OC(F)(F)F)cc1)=NO2 (stereo partly shown) [Compound 50] |  |  |  | < 0.5
